# Test results published in ChEMBL document CHEMBL1129964 (J Med Chem, 1997).
# Experiments:
# Prothrombin = Prothrombin (Homo sapiens, UniProt P00734); assay: Binding affinity towards thrombin
# [1] = target: Tissue-type plasminogen activator (Homo sapiens, UniProt P00750); assay: Binding affinity against tissue-type plasminogen activator receptor
# Plasminogen = Plasminogen (Homo sapiens, UniProt P00747); assay: Binding affinity towards Plasmin
# Serine protease 1 = Serine protease 1 (Homo sapiens, UniProt P07477); assay: Binding affinity towards trypsin
# Sequence of Serine protease 1 (P07477 whole entry): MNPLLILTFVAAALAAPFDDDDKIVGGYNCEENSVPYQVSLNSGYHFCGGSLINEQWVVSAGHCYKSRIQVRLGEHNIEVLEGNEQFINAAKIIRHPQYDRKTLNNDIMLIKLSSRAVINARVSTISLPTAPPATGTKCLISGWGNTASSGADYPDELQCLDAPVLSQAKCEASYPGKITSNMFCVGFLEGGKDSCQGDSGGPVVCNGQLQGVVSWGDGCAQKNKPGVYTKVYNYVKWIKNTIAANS
# Sequence of Plasminogen (P00747 97-580 limits assumed): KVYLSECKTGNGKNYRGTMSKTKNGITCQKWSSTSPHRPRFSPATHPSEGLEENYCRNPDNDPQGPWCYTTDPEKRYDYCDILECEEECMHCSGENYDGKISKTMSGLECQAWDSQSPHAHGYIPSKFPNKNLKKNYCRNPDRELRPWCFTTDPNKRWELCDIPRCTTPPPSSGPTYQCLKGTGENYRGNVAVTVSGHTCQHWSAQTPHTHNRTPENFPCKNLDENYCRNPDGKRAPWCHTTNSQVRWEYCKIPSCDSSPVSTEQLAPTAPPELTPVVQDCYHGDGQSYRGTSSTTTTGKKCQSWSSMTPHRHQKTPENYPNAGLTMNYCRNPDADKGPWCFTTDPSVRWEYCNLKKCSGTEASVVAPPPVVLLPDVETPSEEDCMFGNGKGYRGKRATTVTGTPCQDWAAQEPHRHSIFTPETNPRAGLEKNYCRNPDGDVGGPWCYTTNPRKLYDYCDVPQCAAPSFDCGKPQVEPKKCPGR
# Sequence of Plasminogen (P00747 581-810 limits assumed): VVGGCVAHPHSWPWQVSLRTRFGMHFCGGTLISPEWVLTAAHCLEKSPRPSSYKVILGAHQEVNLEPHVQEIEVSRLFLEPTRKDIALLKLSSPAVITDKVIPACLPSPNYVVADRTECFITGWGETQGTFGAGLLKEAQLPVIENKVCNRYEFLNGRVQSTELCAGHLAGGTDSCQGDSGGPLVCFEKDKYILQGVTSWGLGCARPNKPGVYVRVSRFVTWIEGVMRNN
# Sequence of Tissue-type plasminogen activator (P00750 whole entry): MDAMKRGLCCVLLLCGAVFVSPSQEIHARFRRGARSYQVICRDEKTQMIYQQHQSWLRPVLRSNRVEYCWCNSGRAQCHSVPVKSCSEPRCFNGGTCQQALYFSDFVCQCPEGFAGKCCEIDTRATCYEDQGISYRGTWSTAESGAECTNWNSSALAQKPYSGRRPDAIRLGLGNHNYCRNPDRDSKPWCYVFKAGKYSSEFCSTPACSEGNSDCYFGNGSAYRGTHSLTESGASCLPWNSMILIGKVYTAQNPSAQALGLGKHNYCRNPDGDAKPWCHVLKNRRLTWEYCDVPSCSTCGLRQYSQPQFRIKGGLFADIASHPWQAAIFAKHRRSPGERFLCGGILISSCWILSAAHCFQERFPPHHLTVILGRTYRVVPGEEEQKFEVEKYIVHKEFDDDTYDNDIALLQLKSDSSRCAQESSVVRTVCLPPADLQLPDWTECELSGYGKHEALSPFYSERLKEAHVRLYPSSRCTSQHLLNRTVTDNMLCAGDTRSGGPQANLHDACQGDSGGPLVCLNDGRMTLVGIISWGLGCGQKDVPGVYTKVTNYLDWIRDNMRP
Ki (Prothrombin),Ki [1],Ki (Plasminogen),Ki (Serine protease 1),SMILES
0.0025 nM,6700 µM,0.49 µM,0.004 µM,NC1CCC(CNC(=O)[C@@H]2CCCN2C(=O)C(NS(=O)(=O)Cc2ccccc2)C(c2ccccc2)c2ccccc2)CC1 (stereo partly drawn)
0.1 nM,,,,NC1CCC(CNC(=O)[C@@H]2CCCN2C(=O)[C@H](N)C(c2ccccc2)c2ccccc2)CC1 (stereo partly drawn)
5 nM,,,,CN[C@H](Cc1ccccc1)C(=O)N1CCC[C@H]1C(=O)NC[C@H]1CC[C@H](N)CC1
0.09 nM,,,,CNC(=O)C(=O)[C@@H](NC(=O)[C@@H]1CCCN1C(=O)[C@@H](Cc1ccccc1)NC)[C@H]1CC[C@H](N)CC1
0.4 nM,,,,NC1CCC(CNC(=O)[C@@H]2CCCN2C(=O)[C@@H](Cc2ccccc2)NS(=O)(=O)Cc2ccccc2)CC1 (stereo partly drawn)
